Experimental data taken from patent US6506766B1 (Abbott Laboratories, priority 1998, dated 2003).

What was measured:
[1] = biological target: T1, human glucocorticoid receptor-α [GRX] isoform (Homo sapiens, UniProt P04150); assay: Radioligand binding with human glucocorticoid receptor cytosol ([3H]-dexamethasone competition); conditions: GRX cytosol expressed in insect SF21 cells, [3H]-Dex ~0.9 nM, 4° C. overnight; Ki by Cheng-Prusoff, KL ~[…]; read-out: Ki (nM) GR
T1 construct: host or cells: insect SF21 cells (baculovirus)
T1 sequence (P04150 1-777): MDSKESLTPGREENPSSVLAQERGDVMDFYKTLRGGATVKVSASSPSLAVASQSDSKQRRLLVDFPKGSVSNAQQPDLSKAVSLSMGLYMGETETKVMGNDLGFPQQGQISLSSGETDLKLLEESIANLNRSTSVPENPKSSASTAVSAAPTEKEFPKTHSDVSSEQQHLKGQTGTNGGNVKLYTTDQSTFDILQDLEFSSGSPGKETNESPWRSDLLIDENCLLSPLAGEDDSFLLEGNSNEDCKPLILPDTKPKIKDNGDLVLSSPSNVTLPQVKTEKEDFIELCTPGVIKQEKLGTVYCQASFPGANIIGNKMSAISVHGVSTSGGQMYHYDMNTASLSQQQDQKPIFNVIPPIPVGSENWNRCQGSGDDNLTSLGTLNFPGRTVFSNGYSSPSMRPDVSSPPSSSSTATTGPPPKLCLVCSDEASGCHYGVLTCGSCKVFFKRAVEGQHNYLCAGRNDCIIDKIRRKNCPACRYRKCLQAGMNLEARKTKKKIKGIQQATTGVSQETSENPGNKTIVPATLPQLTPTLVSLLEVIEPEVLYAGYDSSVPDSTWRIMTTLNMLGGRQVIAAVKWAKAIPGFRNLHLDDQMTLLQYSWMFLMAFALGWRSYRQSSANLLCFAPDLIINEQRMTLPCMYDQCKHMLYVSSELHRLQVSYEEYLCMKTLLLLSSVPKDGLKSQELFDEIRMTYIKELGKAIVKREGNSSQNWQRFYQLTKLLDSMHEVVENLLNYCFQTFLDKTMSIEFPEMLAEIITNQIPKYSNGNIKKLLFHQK

[2] = biological target: T2, human progesterone receptor-A [PRA] isoform (Homo sapiens, UniProt P06401); assay: Radioligand binding with human progesterone receptor cytosol ([3H]-progesterone competition); conditions: PRA cytosol expressed in insect SF21 cells, [3H]Prog ~0.8 nM, 4° C. overnight; Ki by Cheng-Prusoff, KL ~4.5 nM; read-out: Ki (nM) PR
T2 construct: host or cells: insect SF21 cells (baculovirus)
T2 sequence (P06401 1-769 isoform P06401-2): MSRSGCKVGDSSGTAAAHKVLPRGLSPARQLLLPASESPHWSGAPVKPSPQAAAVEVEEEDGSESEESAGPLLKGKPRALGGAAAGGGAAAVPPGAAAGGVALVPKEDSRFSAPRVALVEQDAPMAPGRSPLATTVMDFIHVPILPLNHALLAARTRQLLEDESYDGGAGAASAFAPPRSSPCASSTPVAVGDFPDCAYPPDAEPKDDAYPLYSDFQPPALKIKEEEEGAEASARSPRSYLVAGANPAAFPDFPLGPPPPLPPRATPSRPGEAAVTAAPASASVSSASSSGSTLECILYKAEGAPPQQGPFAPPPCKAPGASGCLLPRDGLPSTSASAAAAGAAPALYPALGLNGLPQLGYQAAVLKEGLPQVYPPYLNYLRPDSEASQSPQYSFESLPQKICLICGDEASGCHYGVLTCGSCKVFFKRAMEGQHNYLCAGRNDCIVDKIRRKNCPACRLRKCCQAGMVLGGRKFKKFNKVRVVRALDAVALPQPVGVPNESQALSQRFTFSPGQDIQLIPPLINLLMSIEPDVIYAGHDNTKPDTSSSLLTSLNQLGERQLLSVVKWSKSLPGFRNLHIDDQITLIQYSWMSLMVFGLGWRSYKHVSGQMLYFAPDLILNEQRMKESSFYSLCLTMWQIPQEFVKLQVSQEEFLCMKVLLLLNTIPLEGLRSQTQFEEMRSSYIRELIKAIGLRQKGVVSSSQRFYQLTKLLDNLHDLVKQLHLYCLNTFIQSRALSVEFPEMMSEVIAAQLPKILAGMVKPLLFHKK

Compound	Ki [1] [nM]	Ki [2] [nM]
COc1c(O)ccc2c1-c1ccc3c(c1C(c1c(F)c(F)c(F)c(F)c1F)O2)C(C)=CC(C)(C)N3 (racemic) [Example 269, (±)2,5-Dihydro-9-hydroxy-10-methoxy-2,2,4-trimethyl-5-(2,3,4,5,6-pentafluorophenyl)-1H-[1]benzopyrano[3,4-f]quinoline]	17.1	2470
COc1c(O)ccc2c1-c1ccc3c(c1C(c1ccccc1C)O2)C(C)=CC(C)(C)N3 (racemic) [Example 275, (±)2,5-Dihydro-9-hydroxy-10-methoxy-2,2,4-trimethyl-5-(2-methylphenyl)-1H-[1]benzopyrano[3,4-f]quinoline]	11.7	2870
CC1=CC(C)(C)Nc2ccc3c(c21)C(c1ccccc1)Oc1cccc(Cl)c1-3 (racemic) [Example 310, (+/−)2,5-Dihydro-10-chloro-2,2,4-trimethyl-5-phenyl-1H-[1]benzopyrano[3,4-f]quinoline]	4.4	382
C=CCC1Oc2ccc(OC(=O)CCCNC(C)=O)c(OC)c2-c2ccc3c(c21)C(C)=CC(C)(C)N3 (racemic) [Example 344, (+/−)2,5-Dihydro-9-(4-acetamidobutanoyloxy)-10-methoxy-2,2,4-trimethyl-5-allyl-1H-[1]benzopyranol[3,4-f]quinoline]	0.46	76.7
C=CCC1Oc2ccc(OCC#N)c(OC)c2-c2ccc3c(c21)C(C)=CC(C)(C)N3 (racemic) [Example 377, (+/−)2,5-Dihydro-9-cyanomethoxy-10-methoxy-2,2,4-trimethyl-5-allyl-1H-[1]benzopyrano[3,4-f]quinoline]	51	3080
C=CCC1Oc2ccc(OC(=O)CCNC(C)=O)c(OC)c2-c2ccc3c(c21)C(C)=CC(C)(C)N3 (racemic) [Example 428, (+/−)2,5-Dihydro-9-(3-acetamido-propanoyloxy)-10-methoxy-2,2,4-trimethyl-5-allyl-1H-[1]benzopyrano[3,4-f]quinoline]	0.91	204
CC1=CC(C)(C)Nc2ccc3c(c21)C(Cc1ccccc1)Oc1ccc(O)c(Cl)c1-3 (racemic) [Example 429, (+/−)2,5-Dihydro-9-hydroxy-10-chloro-2,2,4-trimethyl-5-benzyl-1H-[1]benzopyrano[3,4-f]quinoline]	4.1	29.1
C=CCC1Oc2ccc(OC(=O)CNC(N)=O)c(OC)c2-c2ccc3c(c21)C(C)=CC(C)(C)N3 (racemic) [Example 432, (+/−)2,5-Dihydro-9-(N-carbamoyl-2-aminoacetoxy)-10-methoxy-2,2,4-trimethyl-5-allyl-1H-[1]benzopyrano[3,4-f]quinoline]	1.4	207
C=CCC1Oc2ccc(OCCCC(=O)OCC)c(OC)c2-c2ccc3c(c21)C(C)=CC(C)(C)N3 (racemic) [Example 433, (+/−)2,5-Dihydro-9-(4-ethoxy-4-oxo-butoxy)-10-methoxy-2,2,4-trimethyl-5-allyl-1H-[1]benzopyrano[3,4-f]quinoline]	30.2	1410
C=CCC1Oc2ccc(OC(=O)CCC(C)=O)c(OC)c2-c2ccc3c(c21)C(C)=CC(C)(C)N3 (racemic) [Example 434, (+/−)2,5-Dihydro-9-(4-oxo-pentanoyloxy)-10-methoxy-2,2,4-trimethyl-5-allyl-1H-[1]benzopyrano[3,4-f]quinoline]	0.96	123
COc1cccc2c1-c1ccc3c(c1C(c1ccccc1)O2)C(C)=CC(C)(C)N3 (single isomer, unassigned) [Example 25, (±)-2,5-Dihydro-10-methoxy-2,2,4-trimethyl-5-phenyl-1H-[1]benzopyrano-[3,4-f]quinoline]	240	≥ 10000
COc1cccc2c1-c1ccc3c(c1C(c1ccccc1)O2)C(C)=CC(C)(C)N3 (single isomer, unassigned) [Example 26, (±)-2,5-Dihydro-10-methoxy-2,2,4-trimethyl-5-phenyl-1H-[1]benzopyrano[3,4-f]quinoline]	2.1	13400
COc1cccc2c1-c1ccc3c(c1C(C1CCCCC1=O)O2)C(C)=CC(C)(C)N3 (single isomer, unassigned) [Example 142, 2,5-Dihydro-10-methoxy-5-(1-oxo-2-cyclohexyl)-2,2,4-trimethyl-1H-[1]benzopyrano[3,4-f]quinoline]	51	≥ 10000

More lines, now with the values ahead:

Ki [1] [nM]	Ki [2] [nM]	Compound
1.6	21.2	COc1c(O)ccc2c1-c1ccc3c(c1[C@H]([C@H]1C=C(C)CCC1)O2)C(C)=CC(C)(C)N3 (racemic) [Example 243, (+/−)(5S,3′R)2,5-Dihydro-9-hydroxy-10-methoxy-2,2,4-trimethyl-5-(1-methylcyclohexen-3-yl)-1H-[1]benzopyrano[3,4-f]quinoline]
0.82	2290	COC(=O)C1=C[C@@H]([C@@H]2Oc3ccc(O)c(OC)c3-c3ccc4c(c32)C(C)=CC(C)(C)N4)CC1 (racemic) [Example 271, (+/−)2,5-Dihydro-9-hydroxy-10-methoxy-2,2,4-trimethyl-5(S)-(3(S)-1-methylcarboxylatecyclopenten-3-yl)-1H-[1]benzopyrano[3,4-f]quinoline]
4.6	27.8	COc1c(C)ccc2c1-c1ccc3c(c1C(C1C=C(C)CCC1)O2)C(C)=CC(C)(C)N3 (racemic) [Example 307, (+/−)2,5-Dihydro-9-methyl-10-methoxy-2,2,4-trimethyl-5-(1-methylcyclohexen-3-yl)-1H-[1]benzopyrano[3,4-f]quinoline]
2.8	≥ 10000	COc1cccc2c1-c1ccc3c(c1[C@H]([C@H]1C=C(CO)CCC1)O2)C(C)=CC(C)(C)N3 (relative stereo) [Example 148]
2.7	4060	COc1cccc2c1-c1ccc3c(c1[C@@H]([C@H]1C=C(CO)CCC1)O2)C(C)=CC(C)(C)N3 (relative stereo) [Example 149]
14	≥ 10000	COc1cccc2c1-c1ccc3c(c1[C@@H]([C@H]1C=C(CN(C)C)CCC1)O2)C(C)=CC(C)(C)N3 (relative stereo) [Example 165]
2.5	≥ 10000	COc1cccc2c1-c1ccc3c(c1[C@@H]([C@H]1C=C(CN(C)S(C)(=O)=O)CCC1)O2)C(C)=CC(C)(C)N3 (relative stereo) [Example 168, rel (5R, 3′R) 2,5-Dihydro-10-methoxy-5-(1-(N-methyl-N-methylsulfonylamino)methyl-3-cyclohexenyl)-2,2,4-trimethy-1H-[1]benzopyrano[3,4-f]quinoline]
0.53	3420	COc1c(O)ccc2c1-c1ccc3c(c1[C@H]([C@H]1C=C(CO)CCC1)O2)C(C)=CC(C)(C)N3 (relative stereo) [Example 242]
6.3	804	COCC1=C[C@H]([C@@H]2Oc3ccc(O)c(OC)c3-c3ccc4c(c32)C(C)=CC(C)(C)N4)CCC1 (relative stereo) [Example 244, rel-(5S,3′R)-9-Hydroxy-5-[1-methoxymethyl-3-cyclohexenyl]-10-methoxy-2,2,4-trimethyl-2,5-dihydro-1H-[1]benzopyrano[3,4-f]quinoline]
0.86	4080	COC(=O)C1=CC(C2Oc3ccc(O)c(OC)c3-c3ccc4c(c32)C(C)=CC(C)(C)N4)CCC1 (single isomer, unassigned) [Example 288]
9.9	3740	COC(=O)C1=CC(C2Oc3ccc(O)c(OC)c3-c3ccc4c(c32)C(C)=CC(C)(C)N4)CCC1 (single isomer, unassigned) [Example 415]
